# Source: patent publication US11613531B2, “Inhibitors of RHO associated coiled-coil containing protein kinase” (Kadmon Corporation, LLC, priority 2017, dated 2023)
# Assays:
# [1] = target: Recombinant ROCK1 (amino acids 1-535) (Homo sapiens (Human), UniProt Q13464); assay: Z′-Lyte kinase assay, ROCK1; format: biochemical; details: 9 points 2-fold serial dilution
# Outline: (§1)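 IC50s derive from nonlinear curve fits over a 9-point, 2-fold dilution series, with single-point inhibition at 1 μM expressed relative to DMSO. Activity of truncated human ROCK1 (residues 1-535) and ROCK2 (residues 1-552) measured with the Z′-Lyte kinase format.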
# [2] = tested on: Histamine-induced vascular permeability in mice; assay: Histamine-induced vascular permeability model; format: in vivo; details: single oral dose 1 hr. prior to histamine injection
# Text: FIG. 12a. ROCK inhibition stabilizes the endothelial barrier function in a histamine-induced vascular permeability model in mice. Representative images of Evan's Blue dye extravasation induced by histamine in the skin of ROCK inhibitor and vehicle treated mice, relative to the control compound (salbutamol). ROCK inhibitor induces vascular barrier stabilization following single dose of compound administered 1 hr. prior to histamine injection.
# FIG. 12b. Quantitation of the decrease in spot area size and Evan's Blue dye amount in the skin of ROCK inhibitor treated mice following the induction of capillary leakage by histamine injection.
# Histamine-Induced Vascular Permeability Model in Mice […]
# 20 minutes post challenge with histamine, animals were euthanized. The skin was then inverted, the lesion diameters were measured. The area of the lesion was calculated and expressed in square millimeters. Following diameter measurements, Evan's Blue dye was extracted from the skin tissue and the optical density was measured. Data are calculated against a spiked in Evan's Blue standard curve. […]
# The extent of compound efficacy was quantitated by calculating both the overall skin spot area and the amount of Evans Blue dye permeating the skin. 20 Minutes post challenge with histamine, animals were euthanized, the lesion diameters were measured. […]
# [3] = tested on: phosphorylation of ROCK targets MLC and MYPT1 in A7R5 cells; assay: Western blot of A7R5 cell lysates (ppMlc, MYPT1); format: cell-based, Rat; details: 110 nM, 90 min
# Experimental: FIG. 1c. Western blot of A7R5 cell lysates to visualize ppMlc (T18/S19) levels following treatment with the compound of Example 192 (“Example 192”) for 90 min. A7R5 cells were treated with the compound and ppMlc (T18/S19) levels were visualized by western blotting.
# A7R5 cells were treated with the compound of Example 192 for 90 min and ppMlc (T18/S19) levels were visualized by western blotting.
# [4] = tested on: Bleomycin induced lung fibrosis in mice; assay: Prophylactic bleomycin induced lung fibrosis model; format: in vivo; details: 21-day treatment
# Text: FIG. 9a. ROCK inhibitor is active in a mouse model of pulmonary fibrosis. Representative images of lung sections stained with Masson's trichrome to visualized fibrosis in the lungs of mice following 21-day treatment with ROCK inhibitor in the bleomycin-induced lung injury model.
# FIG. 9b. […] Ashcroft fibrotic indices, α-smooth muscle actin (αSMA) percentage positive area and total leukocytes count in bronchoalveolar lavage fluid obtained from lungs of mice in the bleomycin lung fibrosis model treated with compound of Example 192.
# Prophylactic Efficacy of Compounds in Bleomycin Induced Lung Fibrosis in Mice
# Male C57B/L6 mice were ear tagged and weighed prior to the start of the study. Treatment group animals were treated with the compound on day −1 pre-bleomycin and all subsequent days post-bleomycin administration. On day 0, animals in disease groups received 1.5 U/kg dose of bleomycin via oropharyngeal route. […] Animals were closely monitored daily till the end of the study. […] Blood samples were used for plasma preparation; total leukocytes were counted in BAL fluid; and lungs were fixed in 10% neutral buffered formalin for histopathological analysis.
# Based on the strong anti-fibrotic cellular activity of ROCK inhibitors of this invention, the ability of such inhibitors to attenuate fibrosis in the in vivo setting was assessed in several mouse models of disease. […]
# [5] = target: Recombinant ROCK2 (amino acids 1-552) (Homo sapiens (Human), UniProt O75116); assay: Z′-Lyte kinase assay, ROCK2; format: biochemical; details: 9 points 2-fold serial dilution
# Recombinant ROCK2 (amino acids 1-552), sequence (O75116 1-552): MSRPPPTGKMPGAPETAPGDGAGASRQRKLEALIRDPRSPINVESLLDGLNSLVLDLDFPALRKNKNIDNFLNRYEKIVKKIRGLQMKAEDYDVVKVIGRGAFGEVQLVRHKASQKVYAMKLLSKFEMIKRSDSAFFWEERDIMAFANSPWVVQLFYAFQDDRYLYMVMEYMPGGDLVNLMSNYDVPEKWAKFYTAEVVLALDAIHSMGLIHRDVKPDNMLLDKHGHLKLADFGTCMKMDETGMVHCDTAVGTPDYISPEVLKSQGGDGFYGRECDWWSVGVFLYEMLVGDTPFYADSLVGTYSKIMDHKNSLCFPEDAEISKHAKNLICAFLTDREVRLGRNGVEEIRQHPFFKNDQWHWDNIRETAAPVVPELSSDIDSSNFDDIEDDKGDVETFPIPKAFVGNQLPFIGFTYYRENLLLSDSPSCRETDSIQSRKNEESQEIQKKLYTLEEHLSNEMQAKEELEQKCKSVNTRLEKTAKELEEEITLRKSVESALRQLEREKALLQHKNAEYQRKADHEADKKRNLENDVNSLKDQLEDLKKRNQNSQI
# Outline: as §1
# Recombinant ROCK1 (amino acids 1-535), sequence (Q13464 1-535): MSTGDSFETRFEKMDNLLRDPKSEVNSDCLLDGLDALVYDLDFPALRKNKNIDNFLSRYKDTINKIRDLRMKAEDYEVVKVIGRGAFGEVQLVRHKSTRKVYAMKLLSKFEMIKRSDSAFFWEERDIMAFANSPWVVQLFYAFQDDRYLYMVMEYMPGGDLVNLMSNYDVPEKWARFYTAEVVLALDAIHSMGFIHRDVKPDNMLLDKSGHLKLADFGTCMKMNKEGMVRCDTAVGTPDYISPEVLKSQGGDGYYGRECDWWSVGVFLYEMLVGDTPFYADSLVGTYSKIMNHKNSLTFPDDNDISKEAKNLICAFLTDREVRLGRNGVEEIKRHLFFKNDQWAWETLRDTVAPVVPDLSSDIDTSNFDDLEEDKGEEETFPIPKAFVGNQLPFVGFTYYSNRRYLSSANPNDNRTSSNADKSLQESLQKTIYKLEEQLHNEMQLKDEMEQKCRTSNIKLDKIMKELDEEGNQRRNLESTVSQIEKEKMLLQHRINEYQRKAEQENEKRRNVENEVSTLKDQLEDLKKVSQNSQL
compound,measurement,setting,value
"Clc1cnc(N2C3CCC2CNC3)nc1Nc1ccc2[nH]ncc2c1 [Example 192, N-(2-(3,8-diazabicyclo[3.2.1]octan-8-yl)-5-chloropyrimidin-4-yl)-1H-indazol-5-amine]",IC50,[1],5 nM
same,vascular permeability induced by histamine (Evan's Blue dye extravasation),[2],blocked
same,phosphorylation of ROCK targets MLC and MYPT1,[3],efficiently blocked
same,"activity in bleomycin lung fibrosis model (Ashcroft fibrotic indices, αSMA percentage positive area, total leukocytes count in BAL fluid)",[4],positive activity
same,IC50,[5],12 nM
